16 compounds from PubChem BioAssay (NCI) can be followed below.

Molecules are shown by their SMILES.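 Results reflect a 48-hour exposure of cells in 96-well plates to compound at five concentrations. TGI marks complete inhibition of growth.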

Test systems include OVCAR-5 ovarian; MALME-3M melanoma; NCI-H23 lung; SK-MEL-28 melanoma; HOP-92 NSCLC; PC-3 prostate; MDA-N; HOP-62 NSCLC; HL-60(TB) leukemia; CCRF-CEM leukemia.
What all share (assay): growth of human tumour cells (NCI), 48 h

Consider `CN(Cc1cnc2nc(N)nc(N)c2n1)c1ccc(C(=O)NC(CCC(=O)NC(CC(P(=O)(O)O)P(=O)(O)O)C(=O)O)C(=O)O)cc1` (configuration not stated), for which the TGI with OVCAR-5 ovarian, in the test on MALME-3M melanoma, in the test on NCI-H23 lung, in the test on SK-MEL-28 melanoma, with HOP-92 NSCLC and in the test on PC-3 prostate was more than 100 µM throughout. Besides, the TGI in the test on MDA-N and in the test with HOP-62 NSCLC was more than 100 µM in each case.

Regarding `CCC(=O)/C(=C\I)c1ccccc1`, the TGI in the test on OVCAR-5 ovarian came out at 3.48 µM; in the test on HL-60(TB) leukemia, 6.35 µM; in the test on MALME-3M melanoma, 3.23 µM; in the test on NCI-H23 lung, 14.4 µM; in the test on SK-MEL-28 melanoma it was 6.45 µM; in the test with HOP-92 NSCLC it was 4.27 µM. For the same compound, the TGI worked out at 9.34 µM in the test with PC-3 prostate, 11.2 µM in the test with MDA-N and 39.7 µM with HOP-62 NSCLC.

Take `Nc1ccc2ccc(-c3ccc[nH]3)nc2n1`: the TGI in the test with OVCAR-5 ovarian, with MALME-3M melanoma, in the test on NCI-H23 lung, in the test with SK-MEL-28 melanoma, in the test on HOP-92 NSCLC and with PC-3 prostate was more than 100 µM throughout. Further, the TGI with MDA-N and in the test on HOP-62 NSCLC was more than 100 µM in each case.

In the case of `CCOC(=O)CCC(NC(=O)Cc1ccc(Oc2nc3ccccc3nc2-c2ccccc2)cc1)C(=O)OCC` (configuration not stated), the TGI in the test on CCRF-CEM leukemia, with OVCAR-5 ovarian, in the test with HL-60(TB) leukemia, in the test with MALME-3M melanoma, in the test with NCI-H23 lung and in the test with SK-MEL-28 melanoma was more than 100 µM each time. Also, the TGI in the test with PC-3 prostate, with MDA-N and in the test with HOP-62 NSCLC was more than 100 µM in each case.

For the compound `COC([C@@H](OC(=O)c1ccccc1)[C@H](OC(=O)c1ccccc1)C(O)COC(=O)c1ccccc1)n1cc(C)c(=O)[nH]c1=O` (some centres not stated), the TGI in the test on OVCAR-5 ovarian was 62.6 µM; in the test with MALME-3M melanoma it was 91.7 µM; with NCI-H23 lung, more than 100 µM; in the test on SK-MEL-28 melanoma, more than 100 µM; with PC-3 prostate, more than 100 µM; in the test on MDA-N, more than 100 µM. The compound also returned a TGI with HOP-62 NSCLC of more than 100 µM.

Consider `Nc1nc(=O)n(C2OC(CO)C(O)C2O)c2ncc(-c3ccc(-c4ccccc4)cc3)nc12` (configuration not stated), for which the TGI with CCRF-CEM leukemia, with OVCAR-5 ovarian, with MALME-3M melanoma, with NCI-H23 lung, in the test on HOP-92 NSCLC and in the test with PC-3 prostate was more than 100 µM each time. Also, the TGI in the test on MDA-N and with HOP-62 NSCLC was more than 100 µM each time.

Take `CC12CCC(C(=Nc3cc(C(F)(F)F)cc(C(F)(F)F)c3)C1=O)C2(C)C` (configuration not stated): the TGI is more than 100 µM with CCRF-CEM leukemia; more than 100 µM in the test on OVCAR-5 ovarian; 23.8 µM in the test with HL-60(TB) leukemia; 69.4 µM in the test on MALME-3M melanoma; more than 100 µM in the test with NCI-H23 lung; more than 100 µM in the test on SK-MEL-28 melanoma. Besides, the TGI in the test on PC-3 prostate and in the test on HOP-62 NSCLC was more than 100 µM each time.

Take `COc1ccc2c(c1)CCN1CCCc3ccccc3C21` (configuration not stated): the TGI with CCRF-CEM leukemia, in the test with OVCAR-5 ovarian, in the test with NCI-H23 lung, in the test with SK-MEL-28 melanoma, with HOP-92 NSCLC and with PC-3 prostate was more than 100 µM each time. This compound also registered a TGI with HOP-62 NSCLC of more than 100 µM.

Take `COc1c(C)c(C/C=C(\C)CC/C=C(\C)CC/C=C(\C)CCC=C(C)C)c(OC)c2ccccc12`: the TGI with CCRF-CEM leukemia was 64.1 µM; in the test on OVCAR-5 ovarian it was more than 100 µM; in the test on NCI-H23 lung, more than 100 µM; in the test on HOP-92 NSCLC it was more than 100 µM; in the test with PC-3 prostate, more than 100 µM; with MDA-N it was more than 100 µM. In addition, the TGI in the test with HOP-62 NSCLC is more than 100 µM.

Consider `CCCCCCCCCCCCCCCCCC(=O)Nc1ccn(C2CCC(COP(=O)(O)O)O2)c(=O)n1` (configuration not stated), for which the TGI in the test with CCRF-CEM leukemia, with OVCAR-5 ovarian, in the test with NCI-H23 lung, in the test on SK-MEL-28 melanoma, with HOP-92 NSCLC and in the test with PC-3 prostate was more than 100 µM throughout. In the test on HOP-62 NSCLC, this compound returned a TGI of more than 100 µM.

Take `O=C1/C(=C/c2ccccc2)NC(=S)N1CN1CCCCC1`: the TGI in the test with CCRF-CEM leukemia, with OVCAR-5 ovarian, in the test with NCI-H23 lung, in the test on SK-MEL-28 melanoma, in the test with HOP-92 NSCLC and in the test on PC-3 prostate was more than 100 µM in each case. Moreover, the TGI in the test on MDA-N and in the test with HOP-62 NSCLC was more than 100 µM throughout.

Take `COc1cc(CCN(C)C)cc(OC)c1OC`: the TGI with CCRF-CEM leukemia, in the test on OVCAR-5 ovarian, in the test with HL-60(TB) leukemia, in the test with NCI-H23 lung, with HOP-92 NSCLC and in the test on PC-3 prostate was more than 100 µM in each case. Further, the TGI in the test with MDA-N and in the test with HOP-62 NSCLC was more than 100 µM throughout.

Regarding `O=C(O)CCc1ccc2c(c1)CC1(Cc3ccccc3C1)C2`, the TGI in the test on CCRF-CEM leukemia, with OVCAR-5 ovarian, with MALME-3M melanoma, with NCI-H23 lung, in the test on HOP-92 NSCLC and in the test on PC-3 prostate was more than 100 µM in each case. The TGI in the test with MDA-N and with HOP-62 NSCLC was more than 100 µM in each case.

`CC(=O)OCCCCn1cc(Cn2ccc(=O)n(Cc3cn(CCCCOC(C)=O)nn3)c2=O)nn1`: the TGI in the test with CCRF-CEM leukemia, in the test with OVCAR-5 ovarian, in the test with MALME-3M melanoma, in the test with NCI-H23 lung, with SK-MEL-28 melanoma and in the test on HOP-92 NSCLC was more than 100 µM each time. Also, the TGI in the test with PC-3 prostate, with MDA-N and with HOP-62 NSCLC was more than 100 µM throughout.

Take `Cc1ccc(S(=O)(=O)n2ccc(-c3ccc4ccn(S(=O)(=O)c5ccc(C)cc5)c4c3)c2)cc1`: the TGI with CCRF-CEM leukemia, with OVCAR-5 ovarian, with HL-60(TB) leukemia, in the test on MALME-3M melanoma, in the test on NCI-H23 lung and with PC-3 prostate was more than 100 µM in each case. Moreover, the TGI in the test with MDA-N and in the test with HOP-62 NSCLC was more than 100 µM throughout.

As for `CC(=O)Oc1cc(OC(C)=O)c2c(C)cc(=O)oc2c1`, the TGI with CCRF-CEM leukemia, with OVCAR-5 ovarian, in the test with MALME-3M melanoma, in the test with NCI-H23 lung, in the test with SK-MEL-28 melanoma and in the test with PC-3 prostate was more than 100 µM each time. The TGI in the test on MDA-N and in the test with HOP-62 NSCLC was more than 100 µM each time.
